According to patent US10730863B2, “Bridged bicyclic compounds as farnesoid X receptor modulators” (BRISTOL-MYERS SQUIBB COMPANY, priority 2017, dated 2020):

Target: FXR (Homo sapiens (Human), UniProt Q96RI1)
Test: FXR EC50 (FXR agonist activity reported with each example)
Assay type: cell-based

Chain of FXR (Q96RI1 262-486): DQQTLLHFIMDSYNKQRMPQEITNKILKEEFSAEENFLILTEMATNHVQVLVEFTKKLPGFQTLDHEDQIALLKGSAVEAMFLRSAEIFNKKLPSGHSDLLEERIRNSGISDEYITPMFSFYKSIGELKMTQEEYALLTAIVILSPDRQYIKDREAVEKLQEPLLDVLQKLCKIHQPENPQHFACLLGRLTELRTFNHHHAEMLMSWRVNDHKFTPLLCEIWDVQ

O=C(O)c1cncc(-c2noc(C34CCC(OCc5c(-c6ccccc6C(F)(F)F)noc5C5CC5)(CC3)CC4)n2)c1 [Example 11, 5-(5-(4-((5-cyclopropyl-3-(2-(trifluoromethyl)phenyl)isoxazol-4-yl)methoxy)bicyclo[2.2.2]octan-1-yl)-1,2,4-oxadiazol-3-yl)nicotinic acid]
EC50: 2900 nM

Cc1cc(OCC23CCC(OCc4c(-c5c(Cl)cncc5Cl)noc4C4CC4)(CC2)CC3)cnc1C(=O)O [Example 348, 5-((4-((5-cyclopropyl-3-(3,5-dichloropyridin-4-yl)isoxazol-4-yl)methoxy)bicyclo[2.2.2]octan-1-yl)methoxy)-3-methylpicolinic acid]
EC50: 59 nM

CC(C)Oc1cc(C(=O)O)nc2ccc(C#CC34CCC(OCc5c(-c6c(Cl)cncc6Cl)noc5C5CC5)(CC3)CC4)cc12 [Example 390]
EC50: 20 nM

O=C(O)c1cccc(CC(O)C23CCC(OCc4c(-c5c(Cl)cccc5Cl)noc4C4CC4)(CC2)CC3)c1 (stereo not drawn) [Example 127, 3-(2-(4-((5-cyclopropyl-3-(2,6-dichlorophenyl)isoxazol-4-yl)methoxy)bicyclo[2.2.2]octan-1-yl)-2-hydroxyethyl)benzoic acid]
EC50: 280 nM

O=C(O)c1cccc(-c2noc(C34CCC(/C=C/c5c(-c6c(Cl)cncc6Cl)noc5C5CC5)(CC3)OC4)n2)c1 [Example 495, (E)-3-(5-(1-(2-(5-cyclopropyl-3-(3,5-dichloropyridin-4-yl)isoxazol-4-yl)vinyl)-2-oxabicyclo[2.2.2]octan-4-yl)-1,2,4-oxadiazol-3-yl)benzoic acid]
EC50: 1700 nM

O=C(O)c1cccc(-c2noc(C34CCC(/C=C/c5c(-c6c(Cl)cncc6Cl)noc5C5CC5)(CC3)CC4)n2)c1 [Example 504, (E)-3-(5-(4-(2-(5-cyclopropyl-3-(3,5-dichloropyridin-4-yl)isoxazol-4-yl)vinyl)bicyclo[2.2.2]octan-1-yl)-1,2,4-oxadiazol-3-yl)benzoic acid]
EC50: 33 nM

CCn1nc(OCC23CCC(OCc4c(-c5c(Cl)cncc5Cl)noc4C4CC4)(CC2)CC3)cc1C(=O)O [Example 316]
EC50: 64 nM

O=C(O)c1cccc2nc(C34CCC(COCc5c(-c6c(Cl)cccc6Cl)noc5C5CC5)(CC3)CC4)sc12 [Example 172, 2-(4-(((5-cyclopropyl-3-(2,6-dichlorophenyl)isoxazol-4-yl)methoxy)methyl)bicyclo[2.2.2]octan-1-yl)benzo[d]thiazole-7-carboxylic acid]
EC50: 89 nM

Cn1nc(-c2nc(C34CCC(OCc5c(-c6c(Cl)cccc6Cl)noc5C5CC5)(CC3)CC4)no2)cc1C(=O)O [Example 70, 3-(3-(4-((5-Cyclopropyl-3-(2,6-dichlorophenyl)isoxazol-4-yl)methoxy)bicyclo[2.2.2]octan-1-yl)-1,2,4-oxadiazol-5-yl)-1-methyl-1H-pyrazole-5-carboxylic acid]
EC50: 430 nM

O=C(O)c1cccc(-c2nc(C34CCC(OCc5c(-c6ccccc6C(F)(F)F)noc5C5CC5)(CC3)CC4)no2)c1 [Example 20, 3-(3-(4-((5-cyclopropyl-3-(2-(trifluoromethyl)phenyl)isoxazol-4-yl)methoxy)bicyclo[2.2.2]octan-1-yl)-1,2,4-oxadiazol-5-yl)benzoic acid]
EC50: 510 nM

COC(=O)c1cccc(-c2noc(C34CCC(C=Cc5c(-c6c(Cl)cccc6Cl)noc5C5CC5)(CC3)CC4)n2)c1 [Intermediate 159F, methyl 3-(5-(4-(2-(5-cyclopropyl-3-(2,6-dichlorophenyl)isoxazol-4-yl)vinyl)bicyclo[2.2.2]octan-1-yl)-1,2,4-oxadiazol-3-yl)benzoate]
EC50: 4600 nM

CN(Cc1ccccc1C(=O)O)C(=O)C12CCC(OCc3c(-c4c(Cl)cccc4Cl)noc3C3CC3)(CC1)CC2 [Example 144, 2-((4-((5-cyclopropyl-3-(2,6-dichlorophenyl)isoxazol-4-yl)methoxy)-N-methylbicyclo[2.2.2]octane-1-carboxamido)methyl)benzoic acid]
EC50: 160 nM
